Data: US20080009418A1, “Selective Inhibitors” (Alchemia LTD., priority 2004, published 2008)

Columns and labels:
Human δ-opioid (DOP) = biological target: T1, Human δ-opioid (DOP) (Homo sapiens, UniProt P41143); assay: Radioligand binding, human δ-opioid (DOP) membranes, FlashPlate, [3H]-Bremazocine; conditions: compound at 10 μM, [3H]-Bremazocine
T1 construct: purchased Perkin Elmer Biosignal
How it was run: (§1)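 Cloned human receptor membranes were coated onto FlashPlate wells and incubated with radioligand and compound (added from a 0.5 mM DMSO daughter plate) for 1 hour at room temperature in the dark. Scintillation counting gave percent inhibition, with DMSO defining total and reference ligand defining non-specific binding.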

[1] = biological target: T2, Human neuropeptide Y (NPY-Y1) (Homo sapiens, UniProt P25929); assay: Radioligand binding, human neuropeptide Y NPY-Y1 membranes, FlashPlate, [125I]-PYY; conditions: compound at 10 μM, [125I]-PYY
T2 construct: purchased Perkin Elmer Biosignal
T2 sequence (P25929 1-384): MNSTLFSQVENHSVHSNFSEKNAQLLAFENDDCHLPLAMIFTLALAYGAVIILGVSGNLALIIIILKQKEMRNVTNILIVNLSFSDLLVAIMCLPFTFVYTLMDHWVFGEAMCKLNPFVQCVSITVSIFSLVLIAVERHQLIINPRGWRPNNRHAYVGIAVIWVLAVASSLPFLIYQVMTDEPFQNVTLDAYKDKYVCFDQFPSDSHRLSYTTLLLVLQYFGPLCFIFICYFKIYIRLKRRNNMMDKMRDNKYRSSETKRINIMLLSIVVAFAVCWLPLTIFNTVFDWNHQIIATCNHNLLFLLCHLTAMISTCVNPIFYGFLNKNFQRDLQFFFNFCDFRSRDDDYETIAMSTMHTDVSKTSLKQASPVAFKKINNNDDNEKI
How it was run: as §1

[2] = biological target: T3, Human melanin-concentrating hormone (MCH1) (Homo sapiens, UniProt Q99705); assay: Radioligand binding, human melanin-concentrating hormone MCH1 membranes, FlashPlate, [125I]-S36057; conditions: compound at 10 μM
T3 construct: purchased Perkin Elmer Biosignal
T3 sequence (Q99705 whole entry): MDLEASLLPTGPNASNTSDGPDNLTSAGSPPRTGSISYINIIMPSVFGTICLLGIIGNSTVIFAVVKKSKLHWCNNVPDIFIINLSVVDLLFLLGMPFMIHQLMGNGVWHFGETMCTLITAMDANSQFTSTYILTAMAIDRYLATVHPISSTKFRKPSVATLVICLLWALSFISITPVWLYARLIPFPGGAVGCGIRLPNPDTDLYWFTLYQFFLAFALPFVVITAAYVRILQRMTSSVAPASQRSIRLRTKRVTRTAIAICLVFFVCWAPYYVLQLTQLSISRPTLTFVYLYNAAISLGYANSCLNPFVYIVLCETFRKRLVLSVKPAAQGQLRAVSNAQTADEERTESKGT
How it was run: as §1

Mouse urotensin (mUR2) = biological target: T4, Mouse urotensin (mUR2) (Mus musculus, UniProt Q8VIH9); assay: Radioligand binding, mouse urotensin mUR2 membranes, FlashPlate, [125I]-Urotensin II; conditions: compound at 10 μM, [125I]-Urotensin II
T4 construct: purchased Perkin Elmer Biosignal
T4 sequence (Q8VIH9 1-385): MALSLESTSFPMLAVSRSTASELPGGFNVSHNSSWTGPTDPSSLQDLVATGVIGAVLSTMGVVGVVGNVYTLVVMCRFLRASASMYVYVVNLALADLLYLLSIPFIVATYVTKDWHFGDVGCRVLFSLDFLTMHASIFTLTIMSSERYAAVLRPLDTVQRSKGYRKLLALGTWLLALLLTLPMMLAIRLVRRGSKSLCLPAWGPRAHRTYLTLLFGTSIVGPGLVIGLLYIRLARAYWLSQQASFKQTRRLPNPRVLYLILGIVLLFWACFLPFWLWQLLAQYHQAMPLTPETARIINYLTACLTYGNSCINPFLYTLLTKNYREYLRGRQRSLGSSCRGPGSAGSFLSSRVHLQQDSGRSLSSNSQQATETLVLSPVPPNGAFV
How it was run: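 Cloned mouse urotensin (mUR2) receptor membranes from Perkin Elmer Biosignal were immobilized in FlashPlate microplates using a proprietary coating. Each well got 19.5 μl buffer, then 0.5 μl of DMSO, reference ligand, or compound. Adding 5 μl of [125I]-Urotensin II, diluted to 5× final concentration in binding buffer, started binding. Plates were sealed with TopSeal-A and incubated 1 hour at room temperature in the dark. Wells were counted for 30 seconds each on a TopCount after a 60-second delay, and percentage inhibition was calculated.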

Human opioid (ORL1) = biological target: T5, Human opioid (ORL1) (Homo sapiens, UniProt P41146); assay: Radioligand binding, human opioid ORL1 membranes, FlashPlate, [125I]-Nociceptin; conditions: compound at 10 μM, [125I]-Nociceptin
T5 construct: purchased Perkin Elmer Biosignal
T5 sequence (P41146 whole entry): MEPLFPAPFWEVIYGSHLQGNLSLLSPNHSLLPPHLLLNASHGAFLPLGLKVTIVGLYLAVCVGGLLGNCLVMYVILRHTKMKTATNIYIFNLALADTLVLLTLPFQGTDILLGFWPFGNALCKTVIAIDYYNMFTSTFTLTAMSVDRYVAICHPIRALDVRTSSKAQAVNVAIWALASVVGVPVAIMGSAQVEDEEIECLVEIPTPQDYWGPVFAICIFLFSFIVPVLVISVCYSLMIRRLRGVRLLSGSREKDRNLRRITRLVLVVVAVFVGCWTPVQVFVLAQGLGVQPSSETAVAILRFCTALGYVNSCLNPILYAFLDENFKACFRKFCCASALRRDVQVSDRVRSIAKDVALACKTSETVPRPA
How it was run: as §1

Human κ-Opioid (KOP) = biological target: T6, Human κ-Opioid (KOP) (Homo sapiens, UniProt P41145); assay: Radioligand binding, human κ-opioid (KOP) membranes, filtration, [3H]-Diprenorphine; conditions: compound at 10 μM, [3H]-Diprenorphine
T6 construct: purchased Perkin Elmer Biosignal
T6 sequence (P41145 whole entry): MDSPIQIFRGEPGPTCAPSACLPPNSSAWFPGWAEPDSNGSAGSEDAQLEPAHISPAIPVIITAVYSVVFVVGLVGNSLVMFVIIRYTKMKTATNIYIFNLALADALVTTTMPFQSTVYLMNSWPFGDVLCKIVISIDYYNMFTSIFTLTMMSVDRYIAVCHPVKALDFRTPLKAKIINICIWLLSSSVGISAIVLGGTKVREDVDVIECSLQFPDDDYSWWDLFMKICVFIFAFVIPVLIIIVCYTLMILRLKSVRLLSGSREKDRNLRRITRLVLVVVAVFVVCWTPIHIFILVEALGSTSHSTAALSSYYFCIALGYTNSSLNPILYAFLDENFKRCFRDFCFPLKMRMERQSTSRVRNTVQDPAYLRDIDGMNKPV
How it was run: (§2)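 Filtration binding on cloned human receptor membranes (1 Unit/well), [125I]-Substance P for NK1 and [3H]-Diprenorphine for KOP, 1 h at room temperature. Filters PEI-presoaked, washed with cold 50 mM Tris-HCl pH 7.4, counted by scintillation; percent inhibition calculated, reference ligand defining non-specific binding.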

Human Melanocortin (MC4) = biological target: T7, Human Melanocortin (MC4) (Homo sapiens, UniProt P32245); assay: Radioligand binding, human melanocortin MC4 membranes, FlashPlate, [125I]-NDP-αMSH; conditions: compound at 10 μM, [125I]-NDP-αMSH
T7 construct: purchased Perkin Elmer Biosignal
T7 sequence (P32245 whole entry): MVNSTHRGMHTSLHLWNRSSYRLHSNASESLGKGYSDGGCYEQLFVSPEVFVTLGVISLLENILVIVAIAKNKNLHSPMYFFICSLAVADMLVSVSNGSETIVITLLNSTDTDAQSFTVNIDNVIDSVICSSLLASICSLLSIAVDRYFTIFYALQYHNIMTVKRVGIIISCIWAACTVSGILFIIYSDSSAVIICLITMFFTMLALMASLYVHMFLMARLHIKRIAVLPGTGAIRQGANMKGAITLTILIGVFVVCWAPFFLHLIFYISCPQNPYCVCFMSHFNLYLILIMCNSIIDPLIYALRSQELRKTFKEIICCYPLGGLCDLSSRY
How it was run: as §1

Human Melanocortin (MC3) = biological target: T8, Human Melanocortin (MC3) (Homo sapiens, UniProt P41968); assay: Radioligand binding, human melanocortin MC3 membranes, FlashPlate, [125I]-NDP-αMSH; conditions: compound at 10 μM, [125I]-NDP-αMSH
T8 construct: purchased Perkin Elmer Biosignal
T8 sequence (P41968 whole entry): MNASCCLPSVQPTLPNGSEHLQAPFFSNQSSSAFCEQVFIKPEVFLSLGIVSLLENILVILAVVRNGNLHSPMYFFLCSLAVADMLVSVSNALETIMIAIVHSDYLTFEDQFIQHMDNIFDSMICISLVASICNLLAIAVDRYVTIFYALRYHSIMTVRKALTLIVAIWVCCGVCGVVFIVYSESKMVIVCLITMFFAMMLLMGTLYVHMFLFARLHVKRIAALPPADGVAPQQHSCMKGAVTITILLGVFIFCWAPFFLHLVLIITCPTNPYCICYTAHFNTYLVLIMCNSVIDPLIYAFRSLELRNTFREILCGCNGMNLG
How it was run: as §1

Human melanocortin (MC5) = biological target: T9, Human melanocortin (MC5) (Homo sapiens, UniProt P33032); assay: Radioligand binding, human melanocortin MC5 membranes, FlashPlate, [125I]-NDP-αMSH; conditions: compound at 10 μM, [125I]-NDP-αMSH
T9 construct: purchased Perkin Elmer Biosignal
T9 sequence (P33032 whole entry): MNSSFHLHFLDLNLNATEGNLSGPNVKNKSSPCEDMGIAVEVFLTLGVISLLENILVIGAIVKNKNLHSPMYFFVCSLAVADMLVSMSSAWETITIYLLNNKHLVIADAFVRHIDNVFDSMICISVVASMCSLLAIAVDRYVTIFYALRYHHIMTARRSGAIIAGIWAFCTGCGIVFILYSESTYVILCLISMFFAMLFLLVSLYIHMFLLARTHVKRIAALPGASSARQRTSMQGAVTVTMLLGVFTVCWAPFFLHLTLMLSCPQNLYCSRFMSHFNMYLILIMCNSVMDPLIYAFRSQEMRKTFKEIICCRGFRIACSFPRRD
How it was run: as §1

Human μ-opioid (MOP) = biological target: T10, Human μ-opioid (MOP) (Homo sapiens, UniProt P35372); assay: Radioligand binding, human μ-opioid (MOP) membranes, FlashPlate, [3H]-Naloxone; conditions: compound at 10 μM, [3H]-Naloxone
T10 construct: purchased Perkin Elmer Biosignal
T10 sequence (P35372 whole entry): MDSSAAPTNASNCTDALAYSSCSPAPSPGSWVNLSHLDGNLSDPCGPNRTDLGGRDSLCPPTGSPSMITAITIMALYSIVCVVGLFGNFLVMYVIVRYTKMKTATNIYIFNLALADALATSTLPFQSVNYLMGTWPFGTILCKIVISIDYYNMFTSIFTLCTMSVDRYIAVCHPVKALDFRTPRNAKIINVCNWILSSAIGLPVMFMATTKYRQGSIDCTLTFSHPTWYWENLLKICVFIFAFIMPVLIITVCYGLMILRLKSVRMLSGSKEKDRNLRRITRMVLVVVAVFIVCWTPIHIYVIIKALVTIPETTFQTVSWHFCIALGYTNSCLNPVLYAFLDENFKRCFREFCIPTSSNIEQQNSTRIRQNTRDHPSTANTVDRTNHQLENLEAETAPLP
How it was run: as §1

Human neurokinin (NK1) = biological target: T11, Human neurokinin (NK1) (Homo sapiens, UniProt P25103); assay: Radioligand binding, human neurokinin NK1 membranes, filtration, [125I]-Substance P; conditions: compound at 10 μM, [125I]-Substance P
T11 construct: purchased Perkin Elmer Biosignal
T11 sequence (P25103 whole entry): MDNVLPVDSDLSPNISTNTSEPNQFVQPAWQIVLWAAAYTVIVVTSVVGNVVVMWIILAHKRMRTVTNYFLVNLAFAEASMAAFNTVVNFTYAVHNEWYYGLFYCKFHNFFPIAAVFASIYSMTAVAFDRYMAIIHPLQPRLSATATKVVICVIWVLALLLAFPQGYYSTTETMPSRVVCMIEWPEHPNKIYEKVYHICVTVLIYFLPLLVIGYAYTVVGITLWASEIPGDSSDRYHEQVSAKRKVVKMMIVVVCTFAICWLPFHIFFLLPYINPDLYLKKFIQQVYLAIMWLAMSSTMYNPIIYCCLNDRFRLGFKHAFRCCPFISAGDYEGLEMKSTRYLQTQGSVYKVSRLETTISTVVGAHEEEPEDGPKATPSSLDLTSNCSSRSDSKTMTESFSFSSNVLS
How it was run: as §2

T1 sequence (P41143 whole entry): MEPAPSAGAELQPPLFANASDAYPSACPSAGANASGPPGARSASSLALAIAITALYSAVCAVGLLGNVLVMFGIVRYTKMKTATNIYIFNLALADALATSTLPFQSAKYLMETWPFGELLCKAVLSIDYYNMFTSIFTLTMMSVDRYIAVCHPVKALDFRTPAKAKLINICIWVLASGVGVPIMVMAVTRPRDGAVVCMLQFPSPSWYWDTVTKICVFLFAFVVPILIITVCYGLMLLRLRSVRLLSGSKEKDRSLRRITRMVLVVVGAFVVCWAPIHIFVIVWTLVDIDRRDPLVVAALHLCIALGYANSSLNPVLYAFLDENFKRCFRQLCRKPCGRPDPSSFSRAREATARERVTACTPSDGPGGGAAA

SMILES: CO[C@H]1[C@H](O)[C@@H](COCc2ccccc2)OC(OCCc2ccccc2)[C@@H]1NC(=O)CCNC(=N)N (stereo partly drawn) [compound 117]
- A1 radioligand binding, percentage inhibition (Human δ-opioid (DOP)): − (“−” indicates less than 50% inhibition at 10 μM)
- A9 radioligand binding, percentage inhibition [1]: − (“−” indicates less than 50% inhibition at 10 μM)
- A6 radioligand binding, percentage inhibition ([2]; [125I]-S36057): − (“−” indicates less than 50% inhibition at 10 μM)
- A11 radioligand binding, percentage inhibition (Mouse urotensin (mUR2)): − (“−” indicates less than 50% inhibition at 10 μM)
- A10 radioligand binding, percentage inhibition (Human opioid (ORL1)): − (“−” indicates less than 50% inhibition at 10 μM)
- A2 radioligand binding, percentage inhibition (Human κ-Opioid (KOP)): + (“+” indicates greater than 50% inhibition at 10 μM)
- A4 radioligand binding, percentage inhibition (Human Melanocortin (MC4)): − (“−” indicates less than 50% inhibition at 10 μM)
- A3 radioligand binding, percentage inhibition (Human Melanocortin (MC3)): − (“−” indicates less than 50% inhibition at 10 μM)
- A5 radioligand binding, percentage inhibition (Human melanocortin (MC5)): − (“−” indicates less than 50% inhibition at 10 μM)
- A7 radioligand binding, percentage inhibition (Human μ-opioid (MOP)): − (“−” indicates less than 50% inhibition at 10 μM)
- A8 radioligand binding, percentage inhibition (Human neurokinin (NK1)): + (“+” indicates greater than 50% inhibition at 10 μM)

SMILES: CSC1OC(COCc2ccc(Cl)cc2)C(O)C(OCc2ccc3ccccc3c2)C1NC(=O)CCN (stereo not drawn) [compound 308]
- A1: inhibition of radioligand binding, human δ-opioid (DOP) (Human δ-opioid (DOP)): − (“−” indicates less than 50% inhibition at 10 μM)
- A9: inhibition of radioligand binding, human neuropeptide Y (NPY-Y1) [1]: − (“−” indicates less than 50% inhibition at 10 μM)
- A6: inhibition of radioligand binding, human melanin-concentrating hormone (MCH1) ([2]; [125I]-S36057): − (“−” indicates less than 50% inhibition at 10 μM)
- A11: inhibition of radioligand binding, mouse urotensin (mUR2) (Mouse urotensin (mUR2)): − (“−” indicates less than 50% inhibition at 10 μM)
- A10: inhibition of radioligand binding, human opioid (ORL1) (Human opioid (ORL1)): − (“−” indicates less than 50% inhibition at 10 μM)
- A2: inhibition of radioligand binding, human κ-opioid (KOP) (Human κ-Opioid (KOP)): − (“−” indicates less than 50% inhibition at 10 μM)
- A4: inhibition of radioligand binding, human melanocortin (MC4) (Human Melanocortin (MC4)): − (“−” indicates less than 50% inhibition at 10 μM)
- A3: inhibition of radioligand binding, human melanocortin (MC3) (Human Melanocortin (MC3)): − (“−” indicates less than 50% inhibition at 10 μM)
- A5: inhibition of radioligand binding, human melanocortin (MC5) (Human melanocortin (MC5)): − (“−” indicates less than 50% inhibition at 10 μM)
- A7: inhibition of radioligand binding, human μ-opioid (MOP) (Human μ-opioid (MOP)): − (“−” indicates less than 50% inhibition at 10 μM)
- A8: inhibition of radioligand binding, human neurokinin (NK1) (Human neurokinin (NK1)): + (“+” indicates greater than 50% inhibition at 10 μM)

SMILES: NCCCC(=O)NC1C(OCc2ccc3ccccc3c2)OC(COCc2ccccc2)C(O)C1OCc1ccccc1 (single isomer, unassigned) [compound 468]
- A1: inhibition of radioligand binding (Human δ-opioid (DOP); human DOP membranes): − (“−” indicates less than 50% inhibition at 10 μM)
- A9: inhibition of radioligand binding ([1]; human NPY-Y1 membranes): − (“−” indicates less than 50% inhibition at 10 μM)
- A6: inhibition of radioligand binding ([2]; [125I]-S36057, human MCH1 membranes): − (“−” indicates less than 50% inhibition at 10 μM)
- A11: inhibition of radioligand binding (Mouse urotensin (mUR2); mouse mUR2 membranes): − (“−” indicates less than 50% inhibition at 10 μM)
- A10: inhibition of radioligand binding (Human opioid (ORL1); human ORL1 membranes, 10 µM): + (“+” indicates greater than 50% inhibition at 10 μM)
- A2: inhibition of radioligand binding (Human κ-Opioid (KOP); human KOP membranes): − (“−” indicates less than 50% inhibition at 10 μM)
- A4: inhibition of radioligand binding (Human Melanocortin (MC4); human MC4 membranes, 10 µM): − (“−” indicates less than 50% inhibition at 10 μM)
- A3: inhibition of radioligand binding (Human Melanocortin (MC3); human MC3 membranes): − (“−” indicates less than 50% inhibition at 10 μM)
- A5: inhibition of radioligand binding (Human melanocortin (MC5); human MC5 membranes): − (“−” indicates less than 50% inhibition at 10 μM)
- A7: inhibition of radioligand binding (Human μ-opioid (MOP); human MOP membranes, 10 µM): + (“+” indicates greater than 50% inhibition at 10 μM)
- A8: inhibition of radioligand binding (Human neurokinin (NK1); human NK1 membranes): + (“+” indicates greater than 50% inhibition at 10 μM)
